What was measured:
E. faecalis biofilm [1] = assay: Antibacterial efficacy on 7-days old biofilm (CFU count); assay type: cell-based, E. faecalis (ATCC 29212)
Method: In order to test the antibacterial-efficacy of nanoparticulates on bacterial-biofilm, 7-days old biofilm of E. faecalis (ATCC 29212) was grown in well of multiwell-plates as mentioned above. On the eighth day, the media was removed from the wells, and the biofilm was carefully washed once with sterile deionized-water. The biofilm-bacteria was treated with chitosan polymer-Rose Bengal nanoparticles and Rose Bengal and exposed to photodynamic therapy with different doses. Sensitization was done using 1 mL of Rose Bengal (10 μM) and chitosan polymer-Rose Bengal nanoparticles (0.1 & 0.3 mg/mL) at 37° C. for 15 min, protected from ambient light. Subsequently, the excess photosensitizer solutions were removed leaving behind the bound chitosan polymer-Rose Bengal nanoparticles and Rose Bengal. Dark toxicity was evaluated after sensitization period with the two treatment solutions. In case of photodynamic therapy, the sensitized biofilm-bacteria were irradiated using a 540 nm fiber with dosage of 20, 40 and 60 J/cm^2; and fractionated dosage of 10 and 20 J/cm^2 twice. After treatment, the biofilms were washed gently and 1 mL of sterile deionized-water was added. […] Colonies were counted after 24 hours of incubation at 37° C. and expressed as log colony forming units (CFU) per mL. The experiments were carried out in triplicates and the mean values were calculated.

E. faecalis biofilm [2] = assay: Uptake of photosensitizers by E. faecalis biofilm; assay type: cell-based, E. faecalis (ATCC 29212); conditions: 15 min incubation, 7 day old biofilm
Method: The uptake of Rose Bengal, methylene blue and chitosan polymer-Rose Bengal nanoparticles was evaluated on biofilm forms of E. faecalis. A seven day old biofilm of E. faecalis (ATCC 29212) was grown in 24 multi-well plates. 1 mL of overnight E. faecalis culture was added into each well of the multi-well plates and incubated at 37° C., 100 rpm. Fresh media was replenished every 48 hours to provide a constant supply of nutrients and to remove dead bacterial cells. On the eighth day, the media was removed from the wells, and the biofilm was carefully washed once with sterile deionized-water. Different concentrations of chitosan polymer-Rose Bengal nanoparticles (0.3, 0.5 & 1 mg/mL) and MB and Rose Bengal (10, 25, 50 & […]) were added to the biofilm and incubated at 37° C. for 15 min, protected from ambient light. Three samples were used for each concentration. Excess photosensitizer solutions were removed leaving behind the bound Rose Bengal, MB and chitosan polymer-Rose Bengal nanoparticles in biofilm and washed once. The biofilm bacteria were treated with 1 mL of 2% SDS for 20 h in order to extract the cell-bound photosensitizers. The biofilms were disrupted and collected in eppendorf tubes. The biofilm bacteria were centrifuged (3000 rpm, 10 min) and the supernatant solution was taken for photosensitizer quantification. Quantification of photosensitizer was done spectrophotometrically (Epoch, Biotek, USA) at the absorption maxima of the Rose Bengal (540 nm). Calibration curves were constructed for each Rose Bengal in 2% SDS. Uptake values were obtained as the total Rose Bengal and MB concentrations (μM) extracted from both the 1 mL of planktonic and biofilm bacteria.

[3] = system: NIH 3T3 mouse fibroblast cells; assay: Cytotoxicity, MTT assay with and without photodynamic therapy; assay type: cell-based
Method: To evaluate cytotoxicity approximately 1×10^5 NIH 3T3 mouse fibroblast cells (American Type Culture Collection CCL 1, Rockville, Md.) were seeded into 24 well plates in Dulbecco's Modified Eagle medium (DMEM) supplemented with 10% Bovine Serum and antibiotics and incubated for 48 hrs in 5% CO2 incubator (Thermo Electron Corporation, USA). After incubation, chitosan polymer-Rose Bengal nanoparticles and Rose Bengal dissolved in DMEM were added into the cells and incubated for 15 min in dark. The cells were irradiated with a white light source and a 540 nm fiber (Lumacare Inc) for a total dose of 20 J/cm^2. Rose Bengal and chitosan polymer-Rose Bengal nanoparticles were also tested without irradiation. […]
The supernatant media was removed without disturbing the cell line, and the cell layer was washed with 1 mL of phosphate-buffered saline. Cell survival was determined by the standard 3-(4, 5-dimethylthiazol-2-yl)-2, 5-diphenyltetrazolium bromide (MTT) assay (Sigma Aldrich) that determines the mitochondrial activity. […] The absorbance at 540 nm was measured photometrically by using a UV-visible spectrophotometer (Epoch, Biotek, USA). Percentage survival was calculated based on control sample without any treatment as 100%. All analyses were repeated three times in triplicate, and the statistical significance was analyzed by one-way analysis of variance.

E. faecalis biofilm [4] = assay: Biofilm structure by confocal laser scanning microscopy; assay type: cell-based, E. faecalis (ATCC 29212)
Method: The structure of the 7-days old biofilm following treatment with nanoparticulates was assessed using confocal-laser-scanning-microscopy (CLSM). E. faecalis (ATCC 29212) biofilm was grown on a glass bottom culture dishes. Following treatment with Rose Bengal (10 μM) and chitosan polymer-Rose Bengal nanoparticles (0.3 mg/mL) the as mentioned above, biofilms were washed with 1 mL of sterile deionized-water. The biofilms were then stained with 200 μL, of Live/Dead® Baclight™ stain (Molecular Probes, Eugene, Oreg.) and incubated in the dark for 10 minutes. The biofilm-structures were then viewed under spinning disk confocal-laser-scanning microscopy (Olympus, Japan). Kr/Ar laser was the source of illumination with 488 nm excitation and long-pass 500-523 nm and 622-722 nm emission filter settings for green and red signals respectively. Nine different areas were imaged from each sample using a 60× oil objective. The optical sections of the biofilm-structure were first recorded then subsequently analyzed using Velocity® software. Student t-test was used to compare the thickness of the biofilm before and after nanoparticulates treatment.

planktonic E. faecalis [5] = assay: Antibacterial efficacy on planktonic bacteria (CFU count); assay type: cell-based, E. faecalis (ATCC 29212); conditions: 540 nm, 15 min sensitization
Method: E. faecalis (ATCC 29212) was used to test the antibacterial efficacy of Rose Bengal and chitosan polymer-Rose Bengal nanoparticles in both planktonic and biofilm forms. Planktonic cell pellets (10^9 cells/mL) were obtained and the cell pellets treated with 1 mL of Rose Bengal (10 μM) and chitosan polymer-Rose Bengal nanoparticles (0.1 & 0.3 mg/mL), at 37° C. for 15 min, in the manner previously described and protected from ambient light to allow sensitization. Dark toxicity was evaluated after 15 min of sensitization with the two treatment solutions. In the case of photodynamic therapy, the photosensitizer solutions were removed leaving a thin smear at the bottom of the eppendorf tubes. The sensitized planktonic-bacteria were irradiated using a 540 nm fiber with doses of 2 and 5 J/cm^2. After treatment, cell pellets were resuspended in sterile deionized-water (1 mL) and 100 μL of the suspension was plated in freshly poured BHI agar plates after serial dilution. Colonies were counted after 24 hours of incubation at 37° C. and expressed as log colony forming units (CFU) per mL.

planktonic E. faecalis [6] = assay: Membrane integrity of planktonic bacteria (release of cell constituents, OD260); assay type: cell-based, E. faecalis (ATCC 29212); conditions: following photodynamic therapy, 5 J/cm^2, 540 nm
Method: Leakage of cytoplasmic contents (DNA) is a characteristic indication of damage to the bacterial cytoplasmic membrane. Absorbance at 260 nm was used to estimate the amount of intracellular contents leaked from bacteria subjected to different photosensitizers and photodynamic therapy. E. faecalis (ATCC 29212) was incubated overnight at 37° C. under agitation in the Brain-Heart Infusion (BHI) medium (Sigma, USA). The culture was centrifuged (4000 rpm, 10 min, 4° C.), supernatants discarded and washed twice in sterile deionized water (DIW). The cells were resuspended in deionized water and adjusted to 10^7 CFU/mL (optical density 0.7) at 600 nm. The cell suspension (1 mL) was then added into eppendorf tubes and centrifuged. The supernatants were discarded and the cell pellets were treated with different photosensitizer solutions and maintained at 37° C. for 15 min, protected from ambient light. The kinetics of release of intracellular contents, treated bacterial cells were filtered (0.2 μm pore size, Pall) and absorbance of the filtrate recorded at 260 nm (OD260). For photodynamic therapy, the photosensitized cells were centrifuged and cell pellets irradiated (5 J/cm^2, 540 nm). The % change in OD260 at 15 min post sensitization and after irradiation with 5 J/cm^2 was calculated with respect to the OD260 of the sample measured at 0 min.

Compound: O=C1OC2(c3cc(I)c(O)c(I)c3Oc3c2cc(I)c(O)c3I)c2c(Cl)c(Cl)c(Cl)c(Cl)c21 [RB, Rose Bengal]
- elimination of biofilm bacteria (E. faecalis biofilm [1]; fractionated photodynamic therapy, CSRBnp 0.3 mg/mL, Rose Bengal 10 μM): not with Rose Bengal
- killing of biofilm-bacteria (E. faecalis biofilm [1]; photodynamic therapy at 60 J/cm^2): did not show complete killing
- Biofilm E. faecalis photosensitizer uptake/mL of cells (E. faecalis biofilm [2]; photosensitizer 10 μM): 2.72 ± 0.15 µM
- Biofilm E. faecalis photosensitizer uptake/mL of cells (E. faecalis biofilm [2]; photosensitizer 25 μM): 2.80 ± 0.09 µM
- Biofilm E. faecalis photosensitizer uptake/mL of cells (E. faecalis biofilm [2]; photosensitizer 50 μM): 3.01 ± 0.11 µM
- Biofilm E. faecalis photosensitizer uptake/mL of cells (E. faecalis biofilm [2]; photosensitizer 100 μM): 3.68 ± 0.17 µM
- cell survival after photodynamic therapy ([3]; NIH 3T3, 540 nm, 20 J/cm^2): further reduction of cell survival
- dark toxicity ([3]; NIH 3T3, 15 min exposure, no irradiation): higher dark toxicity
- biofilm architecture (E. faecalis biofilm [4]; after PD treatment (irradiation)): not disrupted
- thickness of the biofilm (E. faecalis biofilm [4]; after PD treatment, Rose Bengal 10 μM, CSRBnp 0.3 mg/mL, untreated 39.2±7.3): 21.5 ± 9.57 µm
- light dose giving complete planktonic bacterial killing (planktonic E. faecalis [5]): 5 J/cm^2
- release of cell constituents (absorbance at 260 nm) (planktonic E. faecalis [6]): increased absorbance at 260 nm

Compound: CN(C)c1ccc2nc3ccc(=[N+](C)C)cc-3sc2c1 [MB, methylene blue]
- Biofilm E. faecalis photosensitizer uptake/mL of cells (E. faecalis biofilm [2]; photosensitizer 10 μM): 0.96 ± 0.07 µM
- Biofilm E. faecalis photosensitizer uptake/mL of cells (E. faecalis biofilm [2]; photosensitizer 25 μM): 1.75 ± 0.21 µM
- Biofilm E. faecalis photosensitizer uptake/mL of cells (E. faecalis biofilm [2]; photosensitizer 50 μM): 3.15 ± 0.16 µM
- Biofilm E. faecalis photosensitizer uptake/mL of cells (E. faecalis biofilm [2]; photosensitizer 100 μM): 5.07 ± 0.19 µM
